Experimental data published in patent publication US20060258681A1, “3-Z-[1-(4-(N-((4-Methyl-piperazin-1-yl)-methylcarbonyl)-N-methyl-amino)-anilino)-1-phenyl-methylene]-6-methoxycarbonyl-2-indolinone-monoethanesulphonate and the use thereof as a pharmaceutical composition” (priority 2002, published 2006).

Legend:
[1] = target: Her-2 (Homo sapiens, UniProt P04626); assay: standard known kinase inhibition assay, Her-2; assay type: biochemical
Description: (§1) Experimental studies have shown that a metabolite of the compound 3-Z-[1-(4-(N-((4-methyl-piperazin-1-yl)-methylcarbonyl)-N-methyl-amino)-anilino)-1-phenyl-methylene]-6-methoxycarbonyl-2-indolinone-monoethanesulphonate is the de-esterified 3-Z-[1-(4-(N-((4-methyl-piperazin-1-yl)-carbonyl)-N-methyl-amino)-anilino)-1-phenyl-methylene]-6-carboxy-2-indolinone. The in-vitro inhibitory activity of this metabolite on several kinases has been evaluated, using standard known kinase inhibition assays as well as a standard known cellular proliferation inhibition assay (inhibition of the proliferation of Human Umbilical Cord Endothelial Cells stimulated by the VEGF, the so-called “HUVEC cellular assay”). These experimental results have shown that this metabolite inhibits several kinases, such as VEGFR-2, VEGFR-3, Her-2, FGFR-1, PDGFR-alpha or InsR, as well as the proliferation of HUVEC VEGF stimulated cells.

[2] = target: FGFR-1 (Homo sapiens, UniProt P11362); assay: standard known kinase inhibition assay, FGFR-1; assay type: biochemical
Description: as §1

[3] = target: VEGFR-3 (Homo sapiens, UniProt P35916); assay: standard known kinase inhibition assay, VEGFR-3; assay type: biochemical
Description: as §1

[4] = target: PDGFR-alpha (Homo sapiens, UniProt P16234); assay: standard known kinase inhibition assay, PDGFR-alpha; assay type: biochemical
Description: as §1

[5] = system: Human Umbilical Cord Endothelial Cells stimulated by the VEGF; assay: HUVEC cellular assay (cellular proliferation inhibition); assay type: cell-based
Description: as §1

[6] = target: VEGFR-2 (Homo sapiens, UniProt P35968); assay: standard known kinase inhibition assay, VEGFR-2; assay type: biochemical
Description: as §1

[7] = target: InsR (Homo sapiens, UniProt P06213); assay: standard known kinase inhibition assay, InsR; assay type: biochemical
Description: as §1

[8] = amorphisation during grinding and compression; assay type: physicochemical
[9] = hygroscopicity; assay type: physicochemical
[10] = solubility in physiologically acceptable solvents; assay type: physicochemical

Chain of Her-2 (P04626 23-1255, species assumed): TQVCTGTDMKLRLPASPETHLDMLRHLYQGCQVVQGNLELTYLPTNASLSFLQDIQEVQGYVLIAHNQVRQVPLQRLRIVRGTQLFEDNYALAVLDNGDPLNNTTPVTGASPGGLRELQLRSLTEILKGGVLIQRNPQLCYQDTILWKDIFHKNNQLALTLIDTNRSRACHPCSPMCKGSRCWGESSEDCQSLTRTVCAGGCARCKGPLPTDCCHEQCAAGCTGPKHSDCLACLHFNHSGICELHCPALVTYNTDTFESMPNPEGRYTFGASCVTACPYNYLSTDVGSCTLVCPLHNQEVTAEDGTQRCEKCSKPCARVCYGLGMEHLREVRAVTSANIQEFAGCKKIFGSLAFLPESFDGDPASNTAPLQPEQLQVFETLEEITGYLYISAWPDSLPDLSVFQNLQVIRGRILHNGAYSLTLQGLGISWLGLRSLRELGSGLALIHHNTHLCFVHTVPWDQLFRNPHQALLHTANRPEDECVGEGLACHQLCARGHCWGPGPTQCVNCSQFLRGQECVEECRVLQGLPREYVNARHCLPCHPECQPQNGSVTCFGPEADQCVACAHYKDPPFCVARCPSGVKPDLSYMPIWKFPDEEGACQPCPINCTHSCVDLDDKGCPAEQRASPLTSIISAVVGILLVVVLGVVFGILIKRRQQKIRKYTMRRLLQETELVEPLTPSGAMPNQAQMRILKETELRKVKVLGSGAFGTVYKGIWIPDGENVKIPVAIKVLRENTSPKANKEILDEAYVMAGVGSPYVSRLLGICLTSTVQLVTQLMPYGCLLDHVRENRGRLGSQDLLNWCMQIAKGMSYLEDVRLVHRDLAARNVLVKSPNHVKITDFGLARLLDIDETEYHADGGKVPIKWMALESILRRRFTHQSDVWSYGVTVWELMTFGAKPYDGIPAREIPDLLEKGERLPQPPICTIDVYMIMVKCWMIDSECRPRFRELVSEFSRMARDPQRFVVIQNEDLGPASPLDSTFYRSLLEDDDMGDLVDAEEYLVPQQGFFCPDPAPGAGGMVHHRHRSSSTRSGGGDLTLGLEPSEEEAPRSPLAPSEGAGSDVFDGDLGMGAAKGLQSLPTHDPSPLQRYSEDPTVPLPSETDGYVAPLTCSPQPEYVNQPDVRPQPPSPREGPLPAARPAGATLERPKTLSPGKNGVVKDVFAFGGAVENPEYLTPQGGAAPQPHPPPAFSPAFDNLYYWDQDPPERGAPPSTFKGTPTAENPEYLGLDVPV
Chain of VEGFR-2 (P35968 20-1356, species assumed): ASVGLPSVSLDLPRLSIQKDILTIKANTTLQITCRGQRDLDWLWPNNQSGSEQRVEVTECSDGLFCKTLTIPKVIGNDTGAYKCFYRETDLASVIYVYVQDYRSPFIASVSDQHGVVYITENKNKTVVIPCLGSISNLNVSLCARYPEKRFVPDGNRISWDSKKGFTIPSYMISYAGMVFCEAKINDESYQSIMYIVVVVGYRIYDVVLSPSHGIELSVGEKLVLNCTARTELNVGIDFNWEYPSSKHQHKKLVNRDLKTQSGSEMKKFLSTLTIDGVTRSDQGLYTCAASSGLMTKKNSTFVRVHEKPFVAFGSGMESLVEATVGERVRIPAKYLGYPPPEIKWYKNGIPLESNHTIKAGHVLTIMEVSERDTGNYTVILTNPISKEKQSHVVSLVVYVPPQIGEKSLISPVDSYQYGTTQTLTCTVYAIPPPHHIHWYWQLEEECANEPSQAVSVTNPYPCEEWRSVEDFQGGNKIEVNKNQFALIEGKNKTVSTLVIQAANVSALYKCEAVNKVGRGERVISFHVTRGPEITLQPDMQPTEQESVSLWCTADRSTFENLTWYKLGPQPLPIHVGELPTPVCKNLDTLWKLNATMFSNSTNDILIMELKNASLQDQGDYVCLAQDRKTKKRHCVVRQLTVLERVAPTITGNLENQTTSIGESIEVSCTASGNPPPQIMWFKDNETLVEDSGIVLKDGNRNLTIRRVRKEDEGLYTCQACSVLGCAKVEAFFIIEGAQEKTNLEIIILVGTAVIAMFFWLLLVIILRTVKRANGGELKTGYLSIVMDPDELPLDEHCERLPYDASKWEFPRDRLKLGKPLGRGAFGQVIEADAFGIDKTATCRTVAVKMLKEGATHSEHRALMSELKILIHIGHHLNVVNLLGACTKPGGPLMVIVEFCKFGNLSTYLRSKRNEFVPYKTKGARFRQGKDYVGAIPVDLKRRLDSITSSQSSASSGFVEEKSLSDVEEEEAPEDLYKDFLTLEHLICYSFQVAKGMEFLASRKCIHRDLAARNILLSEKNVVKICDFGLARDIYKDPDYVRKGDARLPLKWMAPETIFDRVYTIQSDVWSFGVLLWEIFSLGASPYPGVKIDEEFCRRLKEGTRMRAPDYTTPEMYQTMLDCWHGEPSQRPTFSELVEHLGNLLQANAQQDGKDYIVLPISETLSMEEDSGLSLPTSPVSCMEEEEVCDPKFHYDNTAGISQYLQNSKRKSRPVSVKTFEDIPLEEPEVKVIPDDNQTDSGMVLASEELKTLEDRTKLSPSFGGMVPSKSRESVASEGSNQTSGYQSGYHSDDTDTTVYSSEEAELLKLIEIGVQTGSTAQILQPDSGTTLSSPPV
Chain of VEGFR-3 (P35916 25-1363, species assumed): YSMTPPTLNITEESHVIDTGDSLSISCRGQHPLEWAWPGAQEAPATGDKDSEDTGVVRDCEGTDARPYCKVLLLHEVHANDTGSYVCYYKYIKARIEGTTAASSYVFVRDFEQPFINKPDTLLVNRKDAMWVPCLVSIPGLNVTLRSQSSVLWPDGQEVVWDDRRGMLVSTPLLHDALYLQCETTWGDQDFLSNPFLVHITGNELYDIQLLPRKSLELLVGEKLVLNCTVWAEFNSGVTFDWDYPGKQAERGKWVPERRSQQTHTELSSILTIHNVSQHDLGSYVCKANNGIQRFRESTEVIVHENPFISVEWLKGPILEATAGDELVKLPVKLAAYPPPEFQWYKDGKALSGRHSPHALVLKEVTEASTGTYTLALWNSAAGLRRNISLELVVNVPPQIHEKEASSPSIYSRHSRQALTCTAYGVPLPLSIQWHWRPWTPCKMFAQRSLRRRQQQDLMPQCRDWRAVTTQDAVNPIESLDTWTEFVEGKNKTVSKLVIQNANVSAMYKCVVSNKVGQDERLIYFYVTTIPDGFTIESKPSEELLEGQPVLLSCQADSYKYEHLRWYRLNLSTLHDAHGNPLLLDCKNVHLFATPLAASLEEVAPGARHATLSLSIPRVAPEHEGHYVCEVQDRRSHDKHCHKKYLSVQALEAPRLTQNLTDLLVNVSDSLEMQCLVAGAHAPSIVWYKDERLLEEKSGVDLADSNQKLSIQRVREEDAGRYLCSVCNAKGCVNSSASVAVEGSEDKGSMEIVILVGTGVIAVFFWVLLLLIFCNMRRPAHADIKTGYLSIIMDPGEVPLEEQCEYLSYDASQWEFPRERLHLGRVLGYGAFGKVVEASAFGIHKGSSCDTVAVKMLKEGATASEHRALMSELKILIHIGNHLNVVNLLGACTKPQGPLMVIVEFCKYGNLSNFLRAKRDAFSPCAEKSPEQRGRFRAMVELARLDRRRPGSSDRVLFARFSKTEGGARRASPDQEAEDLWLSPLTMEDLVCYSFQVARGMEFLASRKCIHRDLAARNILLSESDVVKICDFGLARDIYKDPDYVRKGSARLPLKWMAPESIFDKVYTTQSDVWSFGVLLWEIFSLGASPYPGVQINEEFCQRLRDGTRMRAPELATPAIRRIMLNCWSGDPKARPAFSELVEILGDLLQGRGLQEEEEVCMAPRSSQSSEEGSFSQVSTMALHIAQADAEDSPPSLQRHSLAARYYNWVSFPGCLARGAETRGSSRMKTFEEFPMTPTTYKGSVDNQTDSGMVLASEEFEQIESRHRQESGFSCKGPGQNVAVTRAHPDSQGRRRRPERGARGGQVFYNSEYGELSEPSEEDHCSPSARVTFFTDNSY
Chain of FGFR-1 (P11362 22-822, species assumed): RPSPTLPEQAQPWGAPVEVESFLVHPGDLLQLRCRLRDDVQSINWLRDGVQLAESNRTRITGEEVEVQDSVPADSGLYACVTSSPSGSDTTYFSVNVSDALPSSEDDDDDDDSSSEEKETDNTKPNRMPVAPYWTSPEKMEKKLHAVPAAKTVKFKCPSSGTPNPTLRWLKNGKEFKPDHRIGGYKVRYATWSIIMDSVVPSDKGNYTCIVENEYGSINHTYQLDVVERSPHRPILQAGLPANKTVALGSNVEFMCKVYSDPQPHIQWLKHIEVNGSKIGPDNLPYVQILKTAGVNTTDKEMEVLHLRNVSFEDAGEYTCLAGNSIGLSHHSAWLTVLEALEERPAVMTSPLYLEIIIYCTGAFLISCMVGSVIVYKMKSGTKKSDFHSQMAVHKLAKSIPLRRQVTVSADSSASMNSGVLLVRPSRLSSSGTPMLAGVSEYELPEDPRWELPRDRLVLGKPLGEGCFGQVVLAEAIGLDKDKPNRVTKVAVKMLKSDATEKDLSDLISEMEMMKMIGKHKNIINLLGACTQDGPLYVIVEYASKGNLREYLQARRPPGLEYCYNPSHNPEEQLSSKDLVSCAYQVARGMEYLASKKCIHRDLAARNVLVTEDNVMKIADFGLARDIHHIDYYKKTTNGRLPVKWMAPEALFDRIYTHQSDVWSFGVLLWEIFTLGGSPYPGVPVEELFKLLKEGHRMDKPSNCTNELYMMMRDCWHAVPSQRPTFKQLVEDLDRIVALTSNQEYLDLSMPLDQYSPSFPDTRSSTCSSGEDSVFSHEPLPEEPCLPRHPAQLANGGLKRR

| in-vitro inhibitory activity on Her-2 [1] | in-vitro inhibitory activity on FGFR-1 [2] | in-vitro inhibitory activity on VEGFR-3 [3] | in-vitro inhibitory activity on PDGFR-alpha [4] | in-vitro inhibitory activity on VEGFR-2 [6] | in-vitro inhibitory activity on InsR [7] | amorphisation [8] | hygroscopicity [9] | solubility [10] | SMILES | inhibition of the proliferation of HUVEC VEGF stimulated cells [5] |
| --- | --- | --- | --- | --- | --- | --- | --- | --- | --- | --- |
| inhibits | inhibits | inhibits | inhibits | inhibits | inhibits |  |  |  | CN1CCN(C(=O)N(C)c2ccc(N/C(=C3\C(=O)Nc4cc(C(=O)O)ccc43)c3ccccc3)cc2)CC1 [3-Z-[1-(4-(N-((4-methyl-piperazin-1-yl)-carbonyl)-N-methyl-amino)-anilino)-1-phenyl-methylene]-6-carboxy-2-indolinone] | inhibits |
|  |  |  |  |  |  | low amorphisation | not hygroscopic | readily soluble | CCS(=O)(=O)O.COC(=O)c1ccc2c(c1)NC(=O)/C2=C(\Nc1ccc(N(C)C(=O)CN2CCN(C)CC2)cc1)c1ccccc1 [monoethanesulphonate, 3-Z-[1-(4-(N-((4-methyl-piperazin-1-yl)-methylcarbonyl)-N-methyl-amino)-anilino)-1-phenyl-methylene]-6-methoxycarbonyl-2-indolinone-monoethanesulphonate] |  |
